Converted amounts (≈) assume the structure as drawn.
settings: buffer; pH 7.4; 200.0 µM

Row | Compound | solubility kinetic
1 | COc1ccccc1N(CCC#N)C(=S)Nc1ccc(S(=O)(=O)N2CCOCC2)cc1 | > 69.1 µg/mL
2 | O=C(Nc1ccc(C(=O)c2ccc(C(=O)O)c(C(=O)O)c2)cc1)c1ccccc1 | 57.4 µg/mL (≈ 147 µM)
3 | Cc1nc2ccc(NC(=O)C3=NN(C)C(=O)CC3)cc2s1 | > 45.4 µg/mL
4 | COc1ccccc1OCc1csc(N)n1 | > 35.4 µg/mL
5 | COc1cccc2cc(C(=O)NCc3ccc(C)cc3)c(=N)oc12 | 3 µg/mL (≈ 9.31 µM)
6 | Cc1ccc(CC(=O)NCC(O)c2ccccc2)cc1 (stereo not drawn) | 33.4 µg/mL (≈ 124 µM)
7 | CCOC(=O)C1(Cc2ccccc2)CCCN(CCO)C1 (stereo not drawn) | > 43.7 µg/mL
8 | O=C(Nc1ccccc1)c1ccc(=O)n(Cc2cccc(Cl)c2)c1 | 22.1 µg/mL (≈ 65.2 µM)
9 | COc1cc(C(=O)OCC(=O)Nc2ccc(S(=O)(=O)N3CCCC3)cc2)cc(OC)c1OC | 18.1 µg/mL (≈ 37.8 µM)
10 | O=C(NCC(=O)N1CCN(S(=O)(=O)c2ccc3c(c2)OCCO3)CC1)c1ccccc1F | 10.2 µg/mL (≈ 22 µM)
11 | CCCCc1c(O)c2cccc3c2n(c1=O)CCC3 | 35.2 µg/mL (≈ 137 µM)
12 | COc1ccccc1C(c1c(O)nc(SC)[nH]c1=O)c1c(O)nc(SC)[nH]c1=O | > 65.2 µg/mL
13 | Cc1ccc2c(c1)NC(=O)c1cccc([N+](=O)[O-])c1CO2 | 7 µg/mL (≈ 24.6 µM)
14 | COc1cccc(NC(=O)COC(=O)CNC(=O)C2CCCCC2)c1 | > 52.3 µg/mL
15 | O=C(Cc1ccccc1)NCC(=O)Nc1cccc(Cl)c1 | 10 µg/mL (≈ 33 µM)
16 | O=C(/C=C/c1ccc(O)c([N+](=O)[O-])c1)c1ccc2ccccc2c1 | 1.8 µg/mL (≈ 5.64 µM)
17 | Cc1nc(-c2cccc(S(=O)(=O)N3CCCCC3)c2)cs1 | 24.3 µg/mL (≈ 75.4 µM)
18 | Cl.Nc1ccc(Cc2ccccn2)cc1 | > 38.6 µg/mL
19 | CC1CCCC(C)N1C(=O)COC(=O)CCC1CCCC1 (stereo not drawn) | 30.1 µg/mL (≈ 102 µM)
20 | NC(=O)NC(=O)COC(=O)/C=C/c1cccc(Br)c1 | 0.4 µg/mL (≈ 1.22 µM)
21 | Cn1c(SCC(=O)NC2CCCC2)nnc1-c1ccncc1 | > 47.6 µg/mL
22 | CC(Cc1ccccc1)NC(=O)Cc1ccc([N+](=O)[O-])cc1 (stereo not drawn) | 22.6 µg/mL (≈ 75.8 µM)
23 | N#Cc1ccccc1/C=C/C(=O)N1CCOCC1 | > 36.3 µg/mL
24 | COc1ccccc1N1CCNCC1.Cl | 28.2 µg/mL

Row | Compound | solubility kinetic
25 | O=C(Nc1cccc([N+](=O)[O-])c1)c1ccccc1 | 9.6 µg/mL (≈ 39.6 µM)
26 | Cc1csc(SC(C)C(=O)Nc2ccc3c(c2)OCCO3)n1 (stereo not drawn) | > 50.5 µg/mL
27 | CC(=O)C1=C(C)NC(=S)NC1c1cc([N+](=O)[O-])ccc1O (stereo not drawn) | > 46.1 µg/mL
28 | NC(=O)C1CCCN(Cc2ccc3ccccc3c2)C1 (stereo not drawn) | 29.2 µg/mL (≈ 109 µM)
29 | CCC(CC)C(=O)OCC(=O)Nc1cccc([N+](=O)[O-])c1 | 43 µg/mL (≈ 146 µM)
30 | Cc1cc(=O)[nH]c(SCc2cccc3ccccc23)n1 | 23.5 µg/mL (≈ 83.2 µM)
31 | O=C(Cc1ccc([N+](=O)[O-])cc1)c1ccc(O)cc1O | > 41 µg/mL
32 | CCCc1cc(NCCCN(C)C)n2c(nc3ccccc32)c1C#N | 40.5 µg/mL (≈ 121 µM)
33 | Cc1nc(SCC(=O)NC2CCCC2)c2c(C)c(C)sc2n1 | 0.5 µg/mL (≈ 1.49 µM)
34 | Cc1ccc2c(c1)C1C[N+](C)(CC(=O)c3ccccc3)CCC1N2C(=O)c1ccccc1Cl.[Br-] (stereo not drawn) | 78 µg/mL
35 | O=C(N[C@@H](Cc1c[nH]c2ccccc12)C(=O)O)c1ccccc1Cl | 45.8 µg/mL (≈ 134 µM)
36 | COc1ccc(C=O)cc1Cn1c(C)cc(C)c(C#N)c1=O | 0.6 µg/mL (≈ 2.02 µM)
37 | O=C(COC(=O)CCC(=O)c1cccs1)NCCc1ccccc1 | > 51.8 µg/mL
38 | CCOC(=O)C1CCCN(C(=O)CNC(=O)c2ccc(Br)o2)C1 (stereo not drawn) | > 58.1 µg/mL
39 | Cc1ccc(NC(=O)CCCc2ccccc2)c([N+](=O)[O-])c1 | 4.5 µg/mL (≈ 15.1 µM)
40 | CC(=O)OC1CC(c2cc(C(C)(C)C)c(O)c(C(C)(C)C)c2)=NO1 (stereo not drawn) | 7.7 µg/mL (≈ 23.1 µM)
41 | CC(C)N1CCN(Cc2cccc3nonc23)CC1CCO (stereo not drawn) | 42.2 µg/mL (≈ 139 µM)
42 | CCCN(CCO)C1CCN(CCc2ccccc2)CC1 | 27.4 µg/mL (≈ 94.3 µM)
43 | COc1cccc2c(C)cc(N3CCCCCC3)nc12 | 33.2 µg/mL (≈ 123 µM)
44 | CC(=O)N1CCN(S(=O)(=O)c2ccc(Cl)cc2F)CC1 | > 48.1 µg/mL
45 | Cc1ccc(C)c(-n2c(=O)c(C#N)cc3c(=O)n4ccccc4nc32)c1 | 6.2 µg/mL (≈ 18.1 µM)
46 | O=C(CCC1CCCCC1)NCc1cccnc1 | > 37 µg/mL
47 | CCN(CC)CCn1c(NC(=O)c2ccccc2O)nc2ccccc21 | 18.5 µg/mL (≈ 52.5 µM)
48 | Fc1cccc(COc2ccccc2C(=S)N2CCCC2)c1 | 15 µg/mL (≈ 47.6 µM)

Row | Compound | solubility kinetic
49 | S=c1[nH]c2cc3ccccc3cc2[nH]1 | 27.9 µg/mL (≈ 139 µM)
50 | COc1cc(C=O)ccc1OCC(=O)Nc1ccc2c(c1)OCO2 | 7.6 µg/mL (≈ 23.1 µM)
51 | Cc1ccc(-n2sc3ccccc3c2=O)cc1 | 9.2 µg/mL (≈ 38.1 µM)
52 | COc1ccc(C(=O)NCC(=O)OCC(=O)NCc2cccs2)cc1 | > 54.4 µg/mL
53 | CC(NC(=O)/C(C#N)=C/c1ccc(C(=O)O)cc1)c1ccccc1 (stereo not drawn) | > 48.1 µg/mL
54 | O=C(CNC(=O)C1CCCCC1)NCc1ccco1 | > 39.6 µg/mL
55 | O=C1C(CCS(=O)c2ccccc2)C(=O)N(c2ccccc2)N1c1ccccc1 (stereo not drawn) | > 60.7 µg/mL
56 | O=C(CCn1ccnc1)Nc1nc2ccccc2[nH]1 | > 38.3 µg/mL
57 | COC(=O)[C@@H]1CCCN1Cc1nc(Cc2ccc(OC)c(OC)c2)no1 | > 54.2 µg/mL
58 | CS(=O)(=O)N1CCCC(C(=O)Nc2ccccc2Cl)C1 (stereo not drawn) | > 47.5 µg/mL
59 | CCNC(=O)c1c(O)c2c([nH]c1=O)CCCC2 | 3 µg/mL (≈ 12.7 µM)
60 | COc1ccc(COCC(O)CN2CCC(C(N)=O)CC2)cc1 (stereo not drawn) | > 48.4 µg/mL
61 | CC(C)(C)N=C1C([N+](=O)[O-])=CC=C2C1=NC1(CCCCC1)N2O | 45.3 µg/mL (≈ 142 µM)
62 | COc1ccccc1C(=O)Nc1ccc(Br)c2cccnc12 | < 0.4 µg/mL
63 | CCn1c(SCC(=O)Nc2ccccc2OC)nc(O)cc1=O | 47.7 µg/mL (≈ 142 µM)
64 | Oc1ccccc1C=NCCN=Cc1ccccc1O | 27.6 µg/mL (≈ 103 µM)
65 | COc1ccc(C(=O)c2sc(Nc3ccccc3)nc2N)cc1OC | 0.6 µg/mL (≈ 1.69 µM)
66 | CN(CC(=O)Nc1ccc(N2CCOCC2)cc1)C(=O)c1ccc(CS(C)(=O)=O)cc1 | > 66.8 µg/mL
67 | O=Cc1c(NCc2ccc(F)cc2)c2ccccc2[nH]c1=O | 2.6 µg/mL (≈ 8.77 µM)
68 | COc1ccc(-c2c(C(=O)O)c(C(=O)O)c3n2CCC3)cc1 | > 45.2 µg/mL
69 | Cc1ccc(C)c(NC(=O)CCc2ccc(C)o2)c1 | 24.6 µg/mL (≈ 95.6 µM)
70 | N/C(=N\c1nc2ccccc2o1)NC(=O)/C=C/c1ccccc1 | < 0.2 µg/mL
71 | CCOc1ccc(NC(=O)c2ccccc2NC(=O)c2cccnc2)cc1 | 1.4 µg/mL (≈ 3.87 µM)
72 | Cl.O=C(OCCN1CCCCC1)c1ccccc1F | > 43.2 µg/mL

Row | Compound | solubility kinetic
73 | Cc1ccc(NC(=O)CSc2ncccn2)cc1F | > 41.6 µg/mL
74 | O=C(c1ccccc1F)N1CCC2(CC1)OCCO2 | > 39.8 µg/mL
75 | O=S(=O)(Nc1ccc(C(F)(F)F)cn1)c1ccccc1 | 45.3 µg/mL (≈ 150 µM)
76 | NS(=O)(=O)c1ccc(CCNC(=S)NC2CCCCC2)cc1 | > 51.2 µg/mL
77 | COc1ccc(S(=O)(=O)N2CCc3ccccc32)cc1C(=O)NCCc1ccc(S(N)(=O)=O)cc1 | 3.7 µg/mL (≈ 7.18 µM)
78 | CC1CCc2cccc3c(O)cc(=O)n1c23 (stereo not drawn) | > 32.3 µg/mL
79 | N#C/C(=C/Nc1ccccc1C(=O)O)C(N)=O | > 34.7 µg/mL
80 | CCCCOc1cccc(C(=O)Nc2ccccc2N2CCCC2)c1 | 1.2 µg/mL (≈ 3.55 µM)
81 | Nc1nc2nonc2nc1N | > 22.8 µg/mL
82 | Cn1c(-c2cccc([N+](=O)[O-])c2)[n+](C)c2ccccc21.[Cl-] | > 45.6 µg/mL
83 | CCCCn1c(=O)c(CCC(=O)O)nc2ccccc21 | 31.8 µg/mL (≈ 116 µM)
84 | COC(=O)Cc1nc(NC(=O)c2cccs2)sc1C | > 44.5 µg/mL
85 | Cc1noc(COc2ccccc2OCC(N)=O)n1 | > 39.5 µg/mL
86 | O=C(CCNC(=O)c1ccc(Br)cc1)NCc1ccco1 | > 52.7 µg/mL
87 | O=[N+]([O-])c1cc(S(=O)(=O)N2CCOCC2)ccc1NS(=O)(=O)c1ccccc1 | > 64.1 µg/mL
88 | c1ccc2c(CN3CCOCC3)c[nH]c2c1 | > 32.4 µg/mL
89 | COc1ccc(CNC(=O)COC(=O)C2CC2C)cc1OC (stereo not drawn) | > 46.1 µg/mL
90 | CC(=O)c1ccc(NC(=O)COC(=O)CC2CC3CCC2C3)cc1 (stereo not drawn) | 37.5 µg/mL (≈ 114 µM)
91 | O=C1Cc2ccccc2C(=O)N1c1cccc(Cl)c1 | > 40.8 µg/mL
92 | O=C(OCc1ccccc1)c1cccnc1Cl | 32.5 µg/mL (≈ 131 µM)
93 | CCCOc1ccc(C(=O)OCCN(CC)CC)cc1N.Cl | > 49.6 µg/mL
94 | NC(=O)C1CCN(c2ccc([N+](=O)[O-])cc2Cl)CC1 | 3.3 µg/mL (≈ 11.6 µM)
95 | Cc1occc1C(=O)N1CCN(c2ccc([N+](=O)[O-])cc2)CC1 | 35.4 µg/mL (≈ 112 µM)
96 | CC(C)[N+]1=C2C=CC=CC=C2SC12C([N+](=O)[O-])=CC(=[N+]([O-])[O-])C=C2[N+](=O)[O-] (stereo not drawn) | 1.3 µg/mL (≈ 3.33 µM)

Row | Compound | solubility kinetic
97 | COn1c(-c2ccccc2)nc2ncccc21 | > 33.8 µg/mL
98 | S=C(Nc1ccc(Cl)cc1)Nc1ccc2c(c1)OCCO2 | 8.9 µg/mL (≈ 27.7 µM)
99 | Cc1ccc(C(=O)N2CCN(c3cccc(C)c3C)CC2)o1 | 31.8 µg/mL (≈ 107 µM)
100 | CCc1nnc(NC(=O)CSc2nc(C)cs2)s1 | > 45.1 µg/mL
101 | O=C1NC(c2ccccc2)Oc2ccccc21 (stereo not drawn) | 22.9 µg/mL (≈ 102 µM)
102 | CC1CN(c2ccc(S(=O)(=O)N3CCCC3)cn2)CC(C)O1 (stereo not drawn) | > 48.8 µg/mL
103 | COc1ccc(NC(=O)CN2C(=O)NC3(CCCC3)C2=O)cc1 | 40.1 µg/mL (≈ 126 µM)
104 | CCOc1ccc(C(=O)OC(C)CN2CCCCC2)cc1.Cl (stereo not drawn) | > 49.2 µg/mL
105 | CC(=O)c1sc(NC(=O)COc2ccc(Cl)cc2Cl)nc1C | < 0.4 µg/mL
106 | O=C(NCCNC(=O)c1ccccn1)c1cccc(F)c1 | 41.7 µg/mL (≈ 145 µM)
107 | O=C1CSC(=S)N1c1cccc(Cl)c1 | 0.7 µg/mL (≈ 2.87 µM)
108 | Cc1cc(C)cc(NS(=O)(=O)c2ccc(F)cc2)c1 | > 41.9 µg/mL
109 | CCn1c(CNC(=O)c2ccc(F)cc2)cc2ccccc21 | 1.5 µg/mL (≈ 5.06 µM)
110 | CCN(CC(=O)NCc1cccs1)C(=O)c1ccc(-c2ccc(F)cc2)o1 | 51.8 µg/mL (≈ 134 µM)
111 | Cc1nc2ccccc2c2oc(C(=O)N3CC(C)CC(C)C3)cc12 (stereo not drawn) | 35.5 µg/mL (≈ 110 µM)
112 | Cc1ccc(S(=O)(=O)N2CCOCC2)cc1NC(=O)COC(=O)c1ccc(Cl)nc1 | > 68.1 µg/mL
113 | CC(=O)n1cc(Nc2ccc([N+](=O)[O-])cc2)c2ccccc21 | 4.6 µg/mL (≈ 15.6 µM)
114 | O=C(Nc1ccc(F)cc1)OC1CN2CCC1CC2 (stereo not drawn) | > 39.6 µg/mL
115 | Cn1cc(SCC(=O)NC2CCCC2)c2ccccc21 | > 43.3 µg/mL
116 | COc1ccc(-c2cc(C(=O)N(C)Cc3nc4ccccc4c(=O)[nH]3)c3ccccc3n2)cc1OC | 13.2 µg/mL (≈ 27.5 µM)
117 | COc1ccccc1/C=C/CN1CCCCC1 | 25.8 µg/mL (≈ 112 µM)
118 | Cc1ccc(NC(=O)C(=O)NCCc2c[nH]c3ccccc23)c(C)c1 | 0.4 µg/mL (≈ 1.19 µM)
